Data: PubChem BioAssay AID256 (DTP/NCI, 2004)
Values joined by “and” are separate entries in the source; they are usually repeats but may differ in a detail not shown here. Identical values can stand only once. Inconclusive results and toxic doses are left out.

Test system: CD2F1 mice, L1210 leukemia ip, survival T/C
Assay: NCI In Vivo Anticancer Drug Screen. Data for tumor model L1210 Leukemia (intraperitoneal) in CD2F1 (CDF1) mice
Details: higher = longer survival
How it was run: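 Compound-dosed mice with transplantable tumor versus matched vehicle controls; endpoint ratio T/C reported.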

[1] = endpoint: mean survival time, dose: 100.0 mg/kg/injection, schedule: Q01DX009 (ip), vehicle: saline with Tween-80
[2] = endpoint: mean survival time, dose: 100.0 mg/kg/injection, schedule: Q04DX003 (ip), vehicle: saline with Tween-80
[3] = endpoint: mean survival time, dose: 200.0 mg/kg/injection, schedule: Q01DX009 (ip), vehicle: saline with Tween-80
[4] = endpoint: mean survival time, dose: 200.0 mg/kg/injection, schedule: Q04DX003 (ip), vehicle: saline with Tween-80
[5] = endpoint: mean survival time, dose: 400.0 mg/kg/injection, schedule: Q01DX009 (ip), vehicle: saline with Tween-80
[6] = endpoint: mean survival time, dose: 400.0 mg/kg/injection, schedule: Q04DX003 (ip), vehicle: saline with Tween-80
[7] = endpoint: mean survival time, dose: 100.0 mg/kg/injection, schedule: Q01DX001 (ip), vehicle: saline with Tween-80
[8] = endpoint: mean survival time, dose: 200.0 mg/kg/injection, schedule: Q01DX001 (ip), vehicle: saline with Tween-80
[9] = endpoint: mean survival time, dose: 400.0 mg/kg/injection, schedule: Q01DX001 (ip), vehicle: saline with Tween-80

CCC1(O)C(=O)OCc2c1cc1n(c2=O)Cc2cc3cc(N)ccc3nc2-1 (stereo unspecified)
T/C (endpoint: median survival time, dose: 1.35 mg/kg/injection, schedule: Q01DX005 (ip), vehicle: saline): 243 % of control
T/C (endpoint: median survival time, dose: 1.87 mg/kg/injection, schedule: Q01DX005 (ip), vehicle: saline): 188 % of control
T/C (endpoint: median survival time, dose: 2.0 mg/kg/injection, schedule: Q04DX002 (ip), vehicle: saline): 158 % of control
T/C (endpoint: median survival time, dose: 2.25 mg/kg/injection, schedule: Q01DX005 (ip), vehicle: saline): 243 % of control
T/C (endpoint: median survival time, dose: 3.75 mg/kg/injection, schedule: Q01DX005 (ip), vehicle: saline): 271 % of control and 365 % of control
T/C (endpoint: median survival time, dose: 4.0 mg/kg/injection, schedule: Q04DX002 (ip), vehicle: saline): 157 % of control and 170 % of control
T/C (endpoint: median survival time, dose: 6.25 mg/kg/injection, schedule: Q01DX005 (ip), vehicle: saline): 90 % of control
T/C (endpoint: median survival time, dose: 7.5 mg/kg/injection, schedule: Q01DX005 (ip), vehicle: saline): 123 % of control
T/C (endpoint: median survival time, dose: 8.0 mg/kg/injection, schedule: Q04DX002 (ip), vehicle: saline): 256 % of control and 329 % of control
T/C (endpoint: median survival time, dose: 15.0 mg/kg/injection, schedule: Q01DX005 (ip), vehicle: saline): 100 % of control
T/C (endpoint: median survival time, dose: 16.0 mg/kg/injection, schedule: Q04DX002 (ip), vehicle: saline): 243 % of control and 329 % of control
T/C (endpoint: median survival time, dose: 30.0 mg/kg/injection, schedule: Q01DX005 (ip), vehicle: saline): 88 % of control
T/C (endpoint: median survival time, dose: 32.0 mg/kg/injection, schedule: Q04DX002 (ip), vehicle: saline): 268 % of control

NC(=S)NNC(N)=S
T/C [1]: 101 % of control
T/C [2]: 104 % of control
T/C [3]: 95 % of control
T/C [4]: 102 % of control
T/C [5]: 110 % of control
T/C [6]: 107 % of control

CC(=O)c1ccc(Oc2ccc(/C(C)=N\N=C(N)N)cc2)cc1
T/C (endpoint: mean survival time, dose: 25.0 mg/kg/injection, schedule: Q04DX003 (ip), vehicle: saline): 100 % of control
T/C (endpoint: mean survival time, dose: 50.0 mg/kg/injection, schedule: Q04DX003 (ip), vehicle: saline): 108 % of control
T/C (endpoint: mean survival time, dose: 75.0 mg/kg/injection, schedule: Q01DX001 (ip), vehicle: other): 100 % of control
T/C (endpoint: mean survival time, dose: 150.0 mg/kg/injection, schedule: Q01DX001 (ip), vehicle: other): 112 % of control

Cc1cc(CSC(=N)N)c(C)cc1CSC(=N)N
T/C (endpoint: mean survival time, dose: 5.0 mg/kg/injection, schedule: Q01DX009 (ip), vehicle: saline with Tween-80): 92 % of control
T/C (endpoint: mean survival time, dose: 5.0 mg/kg/injection, schedule: Q04DX003 (ip), vehicle: saline with Tween-80): 106 % of control
T/C (endpoint: mean survival time, dose: 10.0 mg/kg/injection, schedule: Q01DX009 (ip), vehicle: saline with Tween-80): 101 % of control
T/C (endpoint: mean survival time, dose: 10.0 mg/kg/injection, schedule: Q04DX003 (ip), vehicle: saline with Tween-80): 106 % of control
T/C (endpoint: mean survival time, dose: 20.0 mg/kg/injection, schedule: Q01DX009 (ip), vehicle: saline with Tween-80): 95 % of control
T/C (endpoint: mean survival time, dose: 20.0 mg/kg/injection, schedule: Q04DX003 (ip), vehicle: saline with Tween-80): 101 % of control

Cc1cc(Cl)cc([N+](=O)[O-])c1
T/C [2]: 92 % of control
T/C [4]: 88 % of control
T/C [6]: 87 % of control

ON=C(Cc1ccccc1)Cc1ccccc1
T/C [1]: 103 % of control
T/C [2]: 102 % of control
T/C [3]: 94 % of control
T/C [4]: 100 % of control
T/C [5]: 95 % of control
T/C [6]: 105 % of control

Cc1ccc(S/C=C/C(=O)Nc2ccccc2)cc1
T/C (endpoint: mean survival time, dose: 25.0 mg/kg/injection, schedule: Q04DX002 (ip), vehicle: saline with Tween-80): 101 % of control
T/C (endpoint: mean survival time, dose: 50.0 mg/kg/injection, schedule: Q04DX002 (ip), vehicle: saline with Tween-80): 94 % of control
T/C [7]: 97 % of control
T/C (endpoint: mean survival time, dose: 100.0 mg/kg/injection, schedule: Q04DX002 (ip), vehicle: saline with Tween-80): 101 % of control
T/C [2]: 87 % of control
T/C [8]: 105 % of control
T/C [9]: 94 % of control

NC(=O)N/N=C/c1ccc([N+](=O)[O-])s1
T/C [2]: 97 % of control
T/C [4]: 99 % of control
T/C [6]: 106 % of control

CC(C)(C)OC1C2C=CC1C=C2 (stereo unspecified)
T/C [7]: 100 % of control
T/C [8]: 91 % of control
T/C [9]: 88 % of control

COC(C(OC)N1CCOCC1)N1CCOCC1 (stereo unspecified)
T/C [2]: 89 % of control
T/C [4]: 89 % of control

Cc1ccc(-c2cc(C(=O)O)c3cc(F)ccc3n2)cc1
T/C [2]: 101 % of control
T/C [4]: 95 % of control
T/C [6]: 100 % of control
